Source: patent publication US20240365736A1, “COMPOSITIONS AND METHODS FOR TARGETED DEGRADATION OF PROTEINS IN A PLANT CELL” (Oerth Bio LLC, priority 2021, published 2024)
pKd: −log10 of the molar value.

target: plant cereblon (Cereblon ligand binding domain) (Arabidopsis thaliana, UniProt F4ISN3); test: Ligand binding affinity by microscale thermophoresis (Monolith), labeled Cereblon ligand binding domain; conditions: MST, RED-tris-NTA His-tag labeled Cereblon ligand binding domain, 25 nM labeled protein; binding to plant cereblon; read-out: Plant CRBN Kd
Procedure: The binding affinity of the described test compounds was determined using RED-tris-NTA His-tag labeled Cereblon ligand binding domain. The labeling of the Cereblon ligand binding domain was performed according to manufacturer's protocol in assay buffer (50 nM protein: 10 nM dye, 5:1 protein to dye ratio). 200 μM compound in assay buffer (10 mM HEPES pH 7.4, 300 mM NaCl, 0.1% Pluronic-147, 10% Glycerol, 5 mM DTT) was created from 10 mM compound stock in DMSO. A 16-point serial dilution was achieved by taking 10 μL of the 200 μM first well and diluting into 10 μL of assay buffer in the second well, which was diluted in 10 μL assay buffer in the third well, and so on. DMSO content of each well matched to 2%. 10 μL of 50 nM CRBN was added to each well and mixed thoroughly by pipetting. Final assay concentration of 25 nM labeled protein and highest compound concentration of 100 μM, 1% DMSO.
Samples were incubated at room temperature in the dark for five minutes, then collected in standard Monolith capillaries. Assay was performed on the Monolith NT.155Pico using automated excitation level and medium power on M.O. Control software. Analysis of MST traces and determination of dissociation constants and was conducted in M.O. Affinity Analysis software, and the results are shown in Table 2 below.

plant cereblon (Cereblon ligand binding domain), sequence (F4ISN3 1-547): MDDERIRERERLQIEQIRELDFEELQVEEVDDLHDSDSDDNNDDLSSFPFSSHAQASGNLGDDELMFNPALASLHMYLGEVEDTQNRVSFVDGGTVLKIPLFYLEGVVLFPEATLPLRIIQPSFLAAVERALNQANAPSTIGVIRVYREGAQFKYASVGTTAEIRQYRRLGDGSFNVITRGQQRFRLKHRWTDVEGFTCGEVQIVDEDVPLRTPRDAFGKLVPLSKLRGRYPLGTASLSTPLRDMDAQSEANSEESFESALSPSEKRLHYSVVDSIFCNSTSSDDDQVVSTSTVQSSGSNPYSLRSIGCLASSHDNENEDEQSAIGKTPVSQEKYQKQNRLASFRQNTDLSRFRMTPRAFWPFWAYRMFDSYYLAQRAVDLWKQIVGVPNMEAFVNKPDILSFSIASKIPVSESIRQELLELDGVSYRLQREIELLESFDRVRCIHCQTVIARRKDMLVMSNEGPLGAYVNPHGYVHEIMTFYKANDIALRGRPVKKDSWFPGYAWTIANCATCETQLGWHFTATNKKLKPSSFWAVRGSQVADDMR

SMILES | pKd
COCCOCC1COCCN1Cc1ccc(COc2cccc3c2CN([C@H]2CCC(=O)NC2=O)C3=O)cc1 (stereo partly drawn) [Example 11, (3S)-3-(4-((4-((3-((2-methoxyethoxy)methyl)morpholino)methyl)benzyl)-oxy)-1-oxoisoindolin-2-yl)piperidine-2,6-dione] | > 7.00
COCCNCC1COCCN1Cc1ccc(COc2cccc3c2CN([C@H]2CCC(=O)NC2=O)C3=O)cc1 (stereo partly drawn) [Example 12, (3S)-3-[4-[[4-[[3-[(2-Methoxyethylamino)methyl]morpholin-4-yl]methyl]-phenyl]methoxy]-1-oxo-isoindolin-2-yl]piperidine-2,6-dione] | 6.00 to 7.00
COCCNC(=O)C1CCCN(Cc2ccc(COc3cccc4c3CN(C3CCC(=O)NC3=O)C4=O)cc2)C1 [Example 14, 1-(4-(((2-((S)-2,6-dioxopiperidin-3-yl)-1-oxoisoindolin-4-yl)oxy)methyl)benzyl)-N-(2-methoxyethyl)piperidine-3-carboxamide] | 6.00 to 7.00
COCCNC(=O)C1CCN(Cc2ccc(COc3cccc4c3CN([C@H]3CCC(=O)NC3=O)C4=O)cc2)CC1 [Example 16, (S)-1-(4-(((2-(2,6-dioxopiperidin-3-yl)-1-oxoisoindolin-4-yl)oxy)methyl)benzyl)-N-(2-methoxyethyl)piperidine-4-carboxamide] | 6.00 to 7.00
COCCNC(=O)C1CCN(Cc2ccc(COc3cccc4c3CN(C3CCC(=O)NC3=O)C4=O)cc2)C1 [Example 18, 1-(4-(((2-((S)-2,6-dioxopiperidin-3-yl)-1-oxoisoindolin-4-yl)oxy)methyl)benzyl)-N-(2-methoxyethyl)pyrrolidine-3-carboxamide] | 6.00 to 7.00
COCCOCC1CCN(Cc2ccc(COc3cccc4c3CN([C@H]3CCC(=O)NC3=O)C4=O)cc2)CC1 [Example 20, (S)-3-(4-((4-((4-((2-methoxyethoxy)methyl)piperidin-1-yl)methyl)-benzyl)oxy)-1-oxoisoindolin-2-yl)piperidine-2,6-dione] | 6.00 to 7.00
COCCOc1cc(OCc2ccc(CN3CCOCC3)cc2)c2c(c1)C(=O)N([C@H]1CCC(=O)NC1=O)C2 [Example 21, (3S)-3-[6-(2-methoxyethoxy)-4-[[4-(morpholinomethyl)-phenyl]methoxy]-1-oxo-isoindolin-2-yl]piperidine-2,6-dione] | > 7.00
COCCNc1cc(COc2cccc3c2CN([C@H]2CCC(=O)NC2=O)C3=O)ccc1CN1CCOCC1 [Example 22, (3S)-3-[4-[[3-(2-methoxyethylamino)-4-(morpholinomethyl)-phenyl]methoxy]-1-oxo-isoindolin-2-yl]piperidine-2,6-dione] | > 7.00
COCCNc1cc(CN2CCOCC2)ccc1COc1cccc2c1CN([C@H]1CCC(=O)NC1=O)C2=O [Example 23, (S)-3-(4-((2-((2-methoxyethyl)amino)-4-(morpholinomethyl)-benzyl)oxy)-1-oxoisoindolin-2-yl)piperidine-2,6-dione] | 6.00 to 7.00
COCCNC(=O)c1cc(COc2cccc3c2CN([C@H]2CCC(=O)NC2=O)C3=O)ccc1CN1CCOCC1 [Example 24, (S)-5-(((2-(2,6-dioxopiperidin-3-yl)-1-oxoisoindolin-4-yl)oxy)methyl)-N-(2-methoxyethyl)-2-(morpholinomethyl)benzamide] | 6.00 to 7.00
O=C1CCC(N2C(=O)c3ccccc3C2=O)C(=O)N1 (stereo not drawn) [Ref 1, Thalidomide, reference compound] | < 6.00
Nc1cccc2c1C(=O)N(C1CCC(=O)NC1=O)C2=O (stereo not drawn) [Ref 2, Pomalidomide, reference compound] | < 6.00

system: not listed separately; test: Uptake in plant cells: LCMS quantification in treated Abutilon leaves and leaf washings; type: in vivo; conditions: Abutilon (plant), leaf wash (20 mL acetonitrile), topical, 10 μL of 400 μM formulation per leaf; wash of treated Abutilon leaves in 20 mL acetonitrile, 24 hours after treatment; read-out: Average Concentration μM (leaf wash)
Procedure: Abutilon plants were sown in 3 inch pots and allowed to germinate and reach the two leaf stage. At the two leaf stage, plants were separated into groups of 8 plants and had one of their first true leaves labeled with a black marker. Formulation treatment samples were prepared using the following protocol. All treatment samples were prepared to 400 μM. Just before treatment, samples were emulsified and 10 μL of formulated compound was pipetted onto leaves marked for treatment in small droplets evenly across the leaf surface. Once all leaves were treated, they were allowed to sit undisturbed in a growth chamber for 24 hours. After 24 hours plants were removed from the chamber for sample collection.
Using clean scissors treated leaves were removed from the plants, and washed in 20 mL of LCMS grade acetonitrile. A sample of the wash solution was collected and set aside for analysis. The washed leaves were then stored in 7 mL centrifuge tubes and set aside. 8 treated leaves from a grouping were stored in the same sample tube. The untreated leaves were collected and stored in separate 7 mL tubes. The same was done with new growth.
The samples were stored in a −80° C. freezer for 24 hours before milling. Fresh stock of 80:20 LCMS grade acetonitrile and water was prepared as a milling solution. 3 to 4 ceramic milling beads were added to each tube along with 300 μL of milling solution. Tubes were sealed and put into a benchtop homogenizer. Samples were milled for two 12 second intervals at maximum speed with a 30 second rest period in between. Samples were then moved to a 4° C. centrifuge where they were centrifuged at 15000 rpm for 6 minutes. Supernatant was collected and put into 2 mL microcentrifuge tubes. […]
Samples were run with injections of 10 μL. Data was analyzed and calibration curves were built for known samples, using area under the curve for [M+H]. Unknown concentrations were calculated with the calibration curves to determine the amount of PROTAC® compound present at 24 hours in treated leaves and in the leaf washings.

SMILES | concentration at 24 h [µM]
COc1cnc(OC)n2nc(NS(=O)(=O)c3c(OCCOCCOCCOCCOCCOCCOc4ccc5c(c4)C(=O)N(C4CCC(=O)NC4=O)C5=O)cccc3C(F)(F)F)nc12 (stereo not drawn) [Compound 4-B, N-(5,8-Dimethoxy-[1,2,4]triazolo[1,5-c]pyrimidin-2-yl)-2-((17-((2-(2,6-dioxopiperidin-3-yl)-1,3-dioxoisoindolin-5-yl)oxy)-3,6,9,12,15-pentaoxaheptadecyl)oxy)-6-(trifluoromethyl)benzenesulfonamide] | 0.342

same assay, conditions: Abutilon (plant), treated leaves (milled extract supernatant), topical, 10 μL of 400 μM formulation per leaf; Abutilon treated leaves, 24 hours after 10 μL of 400 μM formulated compound on leaf; read-out: Average Concentration μM (treated leaves)

SMILES | concentration at 24 h [µM]
COc1cnc(OC)n2nc(NS(=O)(=O)c3c(OCCOCCOCCOCCOCCOCCOc4ccc5c(c4)C(=O)N(C4CCC(=O)NC4=O)C5=O)cccc3C(F)(F)F)nc12 (stereo not drawn) [Compound 4-B, N-(5,8-Dimethoxy-[1,2,4]triazolo[1,5-c]pyrimidin-2-yl)-2-((17-((2-(2,6-dioxopiperidin-3-yl)-1,3-dioxoisoindolin-5-yl)oxy)-3,6,9,12,15-pentaoxaheptadecyl)oxy)-6-(trifluoromethyl)benzenesulfonamide] | 0.491

same assay, conditions: Abutilon leaves, 24 hours

SMILES | Uptake by leaves
COc1cnc(OC)n2nc(NS(=O)(=O)c3c(OCCOCCOCCOCCOCCOCCOc4ccc5c(c4)C(=O)N(C4CCC(=O)NC4=O)C5=O)cccc3C(F)(F)F)nc12 (stereo not drawn) [Compound 4-B, N-(5,8-Dimethoxy-[1,2,4]triazolo[1,5-c]pyrimidin-2-yl)-2-((17-((2-(2,6-dioxopiperidin-3-yl)-1,3-dioxoisoindolin-5-yl)oxy)-3,6,9,12,15-pentaoxaheptadecyl)oxy)-6-(trifluoromethyl)benzenesulfonamide] | effectively taken up by leaves

system: Matricaria recutita, Diplotaxis tenuifolia, Agrostis spp., Poa annua, or Arabidopsis thaliana; test: Plant phenotyping assay (herbicidal phenotypes, 96-well plates); type: in vivo; conditions: visual score of herbicidal phenotypes after seven days; 238, 475, 950, and 1900 g ai/ha (50-400 uM); also: key: '+++' is highly active; '++' is moderately active; '+' is weakly active; '−' is inactive
Procedure: Seeds of Matricaria recutita, Diplotaxis tenuifolia, Agrostis spp., Poa annua, or Arabidopsis thaliana were sown into 96-well plates containing 200 μl of growth media [0.5× Murashige and Skoog (MS) basal media (Sigma-Aldrich), 2.5 mM 2-(N-morpholino) ethanesulfonic acid (MES—Sigma-Aldrich), 0.7 g/L Phytagar (Invitrogen); pH 5.7]. Three to five seeds were distributed per well. Plates were placed under fifteen hours of light at 23° C., 65% humidity in a controlled environment growth chamber. After approximately three days, test compounds and controls were mixed with acetone and emulsified with an equal volume of 3% methyl ester of rapeseed oil (Mero), and applied to plants at concentrations of 238, 475, 950, and 1900 g ai/ha (50-400 uM).

SMILES | Plant Activity
COc1cnc(OC)n2nc(NS(=O)(=O)c3c(OCCOCCOCCOCCOCCOCCOc4ccc5c(c4)C(=O)N(C4CCC(=O)NC4=O)C5=O)cccc3C(F)(F)F)nc12 (stereo not drawn) [Compound 4-B, N-(5,8-Dimethoxy-[1,2,4]triazolo[1,5-c]pyrimidin-2-yl)-2-((17-((2-(2,6-dioxopiperidin-3-yl)-1,3-dioxoisoindolin-5-yl)oxy)-3,6,9,12,15-pentaoxaheptadecyl)oxy)-6-(trifluoromethyl)benzenesulfonamide] | +++
O=C(COc1ccc(Oc2nc3ccc(F)cc3s2)cc1)NCCCOCCOCCOCCOc1ccc2c(c1)C(=O)N(C1CCC(=O)NC1=O)C2=O (stereo not drawn) [Compound 8-B, N-(3-(2-(2-(2-((2-(2,6-Dioxopiperidin-3-yl)-1,3-dioxoisoindolin-5-yl)oxy)ethoxy)ethoxy)ethoxy)propyl)-2-(4-((6-fluorobenzo[d]thiazol-2-yl)oxy)phenoxy)acetamide] | +
CC(Oc1ccc(Oc2nc3ccc(F)cc3s2)cc1)C(=O)Nc1ccc(OCCCOCCOCCOCCOc2ccc3c(c2)C(=O)N(C2CCC(=O)NC2=O)C3=O)cc1F (stereo not drawn) [Compound 8-C, N-(4-(3-(2-(2-(2-((2-(2,6-Dioxopiperidin-3-yl)-1,3-dioxoisoindolin-5-yl)oxy)ethoxy)ethoxy)-ethoxy)propoxy)-2-fluorophenyl)-2-(4-((6-fluorobenzo[d]thiazol-2-yl)oxy)phenoxy)propanamide] | +
